For assay [1] the following is noted: DHT infusion 10 mg/24 H, mean ± SD, N=5. As to the method: (§1) The method was evaluated on 15 miniature pigs aged 5 years old (INRAE, UEPR, Saint-Gilles, France) and rendered insulin resistant after 3-4 months high fat high sucrose dict ingestion in excess according to already published data (Malbert et al., 2017b). The diet supplied 4024 kcal per kg of feed and was presented twice daily so that the animals could eat up to 150% of the recommended caloric intake (288 kcal/kg BW^0.75).
(§2) Once obese and insulin resistant, the animals were distributed into three groups of equal size (n=5 animals). One group served as control and was submitted only to a dummy implantation procedure including the initial GLP-1r PET imaging sequence using [68Ga]Ga-DO3A-VS-Cys40-Exendin-4. The second group was implanted during a laparoscopic procedure with a silicon catheter (2 mm OD) with its tip located at the portal sensor close to the minimum GLP-1r expression area according to the procedure described in 3.3. The terminal part of the catheter was bend at 90° to enter the periportal area. The catheter was secured at the entrance of the periportal cavity using a dacron surgical mesh (Biomesh P1, Cousin Bioserv Paris) glued to the silicon rubber prior to the implantation. During the implantation, the surgical mesh was glued to the outer layer of the portal vein using a surgical glue dispenser Glubran 2 and Glutack Cousin Bioserv Paris). The opposite tip of the catheter exited between the shoulder of the animal and was connected to an elastomeric pump. The pump (Easypump, II, BBraun) delivered 2 mL per hour of a solution of dihydrotestosterone (Sigma, Paris) in sterile water/DMSO (100:5 V/V) so that 10 mg of dihydrotestosterone was infused daily. The amount of the active molecule was irrespective of the body weight (BW). The pump was located in a lateral pocket of a jacket Whose size was adjusted for obese Yucantan minipigs (Lomir, Canada) and wore by the animal for the duration of the experiment. The third group was implanted during a laparoscopic procedure with an implant delivering 100 μg of dihydrostestoterone daily (Belma Technologies, Belgium) irrespective of the weight of the animal. The implant was inserted in the periportal area and the insertion hole achieved on the mesenteric layer for insertion was closed by a patch of surgical mesh glued directly on the meso using a procedure similar that described above. The anesthesia and surgical approach used for laparoscopy were identical those already described by Malbert et al. (Malbert et al., 2017b).
The protocol was described in FIG. 5 and consisted of two periods; one during which an obese insulin resistant status is achieved followed by a one-month post-surgery period during which DHT was slowly release according to the method of delivery described above. […]

Assay [2] relates to GLP-1r. As to conditions: DHT infusion 10 mg daily, one month after surgery. As to the method:
as §1
Once obese and insulin resistant, the animals were distributed into three groups of equal size (n=5 animals). One group served as control and was submitted only to a dummy implantation procedure including the initial GLP-1r PET imaging sequence using [68Ga]Ga-DO3A-VS-Cys40-Exendin-4. The second group was implanted during a laparoscopic procedure with a silicon catheter (2 mm OD) with its tip located at the portal sensor close to the minimum GLP-1r expression area according to the procedure described in 3.3. The terminal part of the catheter was bend at 90° to enter the periportal area. The catheter was secured at the entrance of the periportal cavity using a dacron surgical mesh (Biomesh P1, Cousin Bioserv Paris) glued to the silicon rubber prior to the implantation. During the implantation, the surgical mesh was glued to the outer layer of the portal vein using a surgical glue dispenser Glubran 2 and Glutack Cousin Bioserv Paris). […]

How the values of assay [3] were obtained: as §1, §2
The protocol was described in FIG. 5 and consisted of two periods; one during which an obese insulin resistant status is achieved followed by a one-month post-surgery period during which DHT was slowly release according to the method of delivery described above. For control and implant groups only, the experimental period was also extended for an additional month to evaluate the capacity of the method to achieve a sustained effect on glucose metabolism. This extended period was not achievable on catheter implanted animals due to ethical constraints. A one-week recovery period is inserted in the protocol after the initial PET GLP-1r scan and after the surgery. The data acquired during these periods were discarded from further analysis.
Distribution of GLP-1r along the portal vein and within the abdominal organs was obtained during an initial PET scan after the administration of 25 to 40 MBq [68Ga]Ga-DO3A-VS-Cys40-Exendin-4 according to the above section 3 of the examples. The portal area of low GLP-1r expression was identified and used for insertion of either the catheter tip or the DHT implant according to the above section 3.3 relating to laparoscopic access. The anesthesia and overall procedure for imaging is identical that described by Malbert et al (Malbert et al., 2020b). The same PET scan procedure was repeated one month after the surgical procedure allowing to compare between groups and within subjects of the same group the changes in GLP-1r distribution.

Assay [4] relates to muscle protein synthesis. As to conditions: effect in muscle protein synthesis; in the form of gel applied cutaneous; cited from earlier work.
[5] abbreviates: periportal catheter, first 30 days after surgery.
[6] abbreviates: 30 days after the implantation surgery.
The mark [7] stands for this setting: DHT infusion 10 mg/24 H, periportal catheter, first 30 days after surgery, mean ± SD, N=5.
[8] abbreviates: DHT infusion 10 mg/24 H, 30 days after the implantation surgery, mean ± SD, N=5.

With `C[C@]12CCC(=O)C[C@@H]1CC[C@@H]1[C@@H]2CC[C@]2(C)[C@@H](O)CC[C@@H]12` [DHT infusion, dihydrotestosterone], in assay [1] (setting [5]), the Body weight was 80.8 ± 2.0 kg and the Daily ingestion is reported as 8.6 ± 0.03 g/kg · day. In assay [1] (setting [6]), the Basal metabolic rate is 0.0079 ± 0.0007 kcal/min/kg and the “Fasting glucose oxidation rate” value was 1.8 ± 0.10 mg/min · kg. The “Portal GLP-1r binding potential/volume of distribution compared to control” value in assay [2] is given as “more than doubled”. Also, the “Non portal (pancreatic) GLP-1r binding” value in assay [2] (ns vs control) is given as 4.8±0.41. In assay [3] (setting [7]), the Abdominal fat was 38.1 ± 0.7!^ % of BW, the Fat is 36.8 ± 0.5 % of BW, the “Liver to spleen ratio” value is given as 1.1 ± 0.02 and the Mean arterial pressure is on record as 79 ± 3.1 mmHg. Moreover, in assay [3] (setting [7]), the Muscle is given as 6.5 ± 1.0 % of BW, the Pulse rate came out at 104 ± 8.7 min⁻¹ and the Systolic blood pressure turned out to be 55 ± 2.1 mmHg. In assay [3] (setting [8]), the Clamp plasma insulin is given as 501 ± 14.1 μU/mL, the Fasting plasma glucose is listed as 4.2 ± 0.23 mmol/L, the Fasting plasma insulin is 2.1 ± 0.21 μU/mL and the “Mean plasma glucose at clamp plateau” value was 4.2 ± 0.36 mmol/L. The compound further returned an Insulin sensitivity in assay [3] (DHT infusion 10 mg/24 H, euglycemic hyperinsulinemic clamp plateau, 30 days after the implantation surgery, mean ± SD, N=5) of 6.8 ± 0.20 dL/kg · min/μMU/mL*1E−3.

For `C[C@]12CCC(=O)C[C@@H]1CC[C@@H]1[C@@H]2CC[C@]2(C)[C@@H](O)CC[C@@H]12` [DHT, dihydrotestosterone], the ED50 in assay [4] is on record as 20 mg daily. In addition, the “Circulating insulin as fraction of the insulinemia measured in control group” value in assay [3] (DHT treated animals (both groups), fasting, 30 days after surgery) is 1/3. For the same compound, the “Whole-body insulin sensitivity change compared to control” value in assay [3] (euglycemic hyperinsulinemic clamp, irrespective of the DHT group) was “one third increase”.

Source of the values: patent US20240374613A1, “BIOACTIVE MOLECULES FOR USE IN TREATING INSULIN RESISTANCE AND/OR RESTORING GLUCOSE HOMEOSTASIS” (PALTECH, priority 2021, published 2024).
